{"source": "ChEMBL document CHEMBL1146262", "about": "“Novel thiazolones as HCV NS5B polymerase allosteric inhibitors: Further designs, SAR, and X-ray complex structure” (Bioorg Med Chem Lett, 2007)", "data": [{"assay": "Inhibition of HCV NS5B polymerase by RdRp-catalyzed elongation assay", "parameters": "species or system Hepacivirus hominis", "units": {"IC50": "µM"}, "values": [{"smiles": "CCc1ccc(/C=C2\\SC(NC(C(=O)O)c3ccc(Br)cc3)=NC2=O)o1", "note": "(stereo not drawn)", "IC50": 6}, {"smiles": "CCc1ccc(/C=C2\\SC(NC(C(=O)O)c3ccc(C(F)(F)F)cc3)=NC2=O)o1", "note": "(stereo not drawn)", "IC50": 21}, {"smiles": "CCc1ccc(/C=C2\\SC(NC(C(=O)O)c3ccc4ccccc4c3)=NC2=O)o1", "note": "(stereo not drawn)", "IC50": 14}, {"smiles": "CCc1ccc(/C=C2\\SC(NC(C(=O)O)c3ccc(C)cc3C)=NC2=O)o1", "note": "(stereo not drawn)", "IC50": 12}, {"smiles": "CCc1ccc(/C=C2\\SC(NC(C(=O)NO)c3ccc(Cl)cc3Cl)=NC2=O)o1", "note": "(stereo not drawn)", "IC50": 5.5}, {"smiles": "CCc1ccc(/C=C2\\SC(NC(c3ccccc3)c3nn[nH]n3)=NC2=O)o1", "note": "(stereo not drawn)", "IC50": 19}, {"smiles": "CCc1ccc(/C=C2\\SC(NC(C(=O)O)C3(C)CCCC3)=NC2=O)o1", "note": "(stereo not drawn)", "IC50": "> 100"}, {"smiles": "CCc1ccc(/C=C2\\SC(NC(C(=O)O)c3ccc(F)c(Cl)c3)=NC2=O)o1", "note": "(stereo not drawn)", "IC50": 24}, {"smiles": "CCc1ccc(/C=C2\\SC(NC(c3ccc(C)cc3)c3nn[nH]n3)=NC2=O)o1", "note": "(stereo not drawn)", "IC50": 14}, {"smiles": "CCc1ccc(/C=C2\\SC(NC(C(=O)O)c3ccc(C)cc3)=NC2=O)o1", "note": "(stereo not drawn)", "IC50": 11}, {"smiles": "CCc1ccc(/C=C2\\SC(NC(Cc3ccccc3)C(=O)O)=NC2=O)o1", "note": "(stereo not drawn)", "IC50": 68}, {"smiles": "CCc1ccc(/C=C2\\SC(NC(C(=O)O)c3ccc(Cl)cc3Cl)=NC2=O)o1", "note": "(stereo not drawn)", "IC50": 7.6}, {"smiles": "CCc1ccc(/C=C2\\SC(N[C@H](C(=O)O)c3ccc(F)cc3)=NC2=O)o1", "note": "(stereo in doubt)", "IC50": 3}, {"smiles": "CCc1ccc(/C=C2\\SC(N[C@H](CC(=O)O)c3ccc(C#N)cc3)=NC2=O)o1", "note": "(stereo in doubt)", "IC50": "> 100"}, {"smiles": "CCc1ccc(/C=C2\\SC(N[C@H](CC(=O)O)c3ccc(C)cc3)=NC2=O)o1", "note": "(stereo in doubt)", "IC50": 27}, {"smiles": "CCc1ccc(/C=C2\\SC(N[C@H](C(=O)O)C3CCCCC3)=NC2=O)o1", "note": "(stereo in doubt)", "IC50": 25}, {"smiles": "CCc1ccc(/C=C2\\SC(N[C@H](C(=O)O)c3ccccc3)=NC2=O)o1", "note": "(stereo in doubt)", "IC50": 55}, {"smiles": "CCc1ccc(/C=C2\\SC(N[C@H](CC(=O)O)c3cccnc3)=NC2=O)o1", "note": "(stereo in doubt)", "IC50": "> 100"}, {"smiles": "CCc1ccc(/C=C2\\SC(N[C@H](CC(=O)O)c3ccccc3)=NC2=O)o1", "note": "(stereo in doubt)", "IC50": 59}, {"smiles": "CCc1ccc(/C=C2\\SC(N[C@H](C(N)=O)c3ccc(F)cc3)=NC2=O)o1", "note": "(stereo in doubt)", "IC50": 16}, {"smiles": "CCc1ccc(/C=C2\\SC(N[C@@H](CC(=O)O)c3ccc(Cl)cc3Cl)=NC2=O)o1", "note": "(stereo in doubt)", "IC50": 9}, {"smiles": "CCc1ccc(/C=C2\\SC(N[C@H](CC(=O)O)c3ccc(Cl)cc3Cl)=NC2=O)o1", "note": "(stereo in doubt)", "IC50": 8.5}, {"smiles": "CCc1ccc(/C=C2\\SC(N[C@H](C(=O)O)c3ccc(O)cc3)=NC2=O)o1", "note": "(stereo in doubt)", "IC50": 43}, {"smiles": "CCc1ccc(/C=C2\\SC(N[C@H](CC(=O)O)c3ccc(Br)cc3)=NC2=O)o1", "note": "(stereo in doubt)", "IC50": 16.5}, {"smiles": "CCc1ccc(/C=C2\\SC(N[C@H](Cc3nn[nH]n3)c3ccccc3)=NC2=O)o1", "note": "(stereo in doubt)", "IC50": 24}, {"smiles": "CCc1ccc(/C=C2\\SC(N[C@@H](CC(=O)O)c3ccc(F)cc3)=NC2=O)o1", "note": "(stereo in doubt)", "IC50": 13}, {"smiles": "CCc1ccc(/C=C2\\SC(N[C@H](CC(=O)O)c3ccc(F)cc3)=NC2=O)o1", "note": "(stereo in doubt)", "IC50": 44}, {"smiles": "CCc1ccc(/C=C2\\SC(N[C@@H](C(=O)O)c3ccc(F)cc3)=NC2=O)o1", "note": "(stereo in doubt) [VALEANT]", "IC50": 50}]}]}
